From patent publication USRE46943E1, “Radioprotector compounds and methods” (PETER MACCALLUM CANCER INSTITUTE, priority 2010, dated 2018)
Values belong to the compound of their own block, whether it stands above or below them.

Legend:
[1] = test system: transformed human keratinocyte cell line (FEP 1811); test: Clonogenic survival cell culture assay for cytotoxicity; format: cell-based; settings: Homo sapiens, Keratinocyte, light or radiation study; un-irradiated keratinocytes, one hour drug exposure, colonies counted after eight days; read-out: C50 (concentration of radioprotector that results in 50% clonogenic survival)
Procedure, shortened: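 Mid-log monolayers exposed to test drug for 1 h, then pronase-dispersed and plated; colonies counted after 8 days. For […], irradiation at 0.6 Gy per minute began 30 min after drug addition, with total drug exposure held at 60 min before plating for clonogenic survival.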

[2] = test system: transformed human keratinocyte cell line (FEP 1811); test: Clonogenic survival cell culture assay for radioprotective activity (12 Gy 137Cs gamma irradiation); format: cell-based; settings: 12 Gy; for DMF10 (dose modification factor at a concentration of 10 microM of radioprotector): 10 microM radioprotector; for DMFm (dose modification factor at maximum protection): DMF=Dp/Dc at survival level Sm; for PF (protection factor = Sm/So): survival at maximum protection vs irradiation only
Procedure, shortened: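 Survival after irradiation gave protection factor PF = Sm/So (maximum-protection survival over irradiation-only survival). DMF = Dp/Dc is the ratio of doses giving survival Sm with and without radioprotector. DMF10 uses survival at 10 microM radioprotector in place of Sm.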

mice = test: Radioprotection of mouse jejunum, subcutaneous administration: local reaction at injection site; format: in vivo; settings: subcutaneous solutions in polyethylene glycol (MW 400), similar experiments with the jejunum model
Experimental: 2-Hydroxypropyl-β-cyclodextrin (HPCD, Sigma-Aldrich, typical MW 1540) vehicle solution was prepared by dissolving 3.6 g of HPCD in 9.3 mL of phosphate buffered saline (PBS) resulting in 30% v/w solution. […] The concentration of M2PB was measured following appropriate dilution in 45% MeOH 0.1% TFA using an extinction coefficient […] at 345 nm. The M2PB/HPCD stock was diluted to 8.75 mg/mL (22 mM) in HPCD vehicle to produce the final M2PB/HPCD formulation, which was injected subcutaneously into mice, between the shoulder blades (scruff of the neck) at a volume of 8×10^−3 ml/g body weight.
The subsequent irradiation and analysis was as described for Example 56.

- melting point: 180 °C (dec.)
Compound: CN(C)c1ccc2nc(-c3ccc4nc(-c5ccccn5)[nH]c4c3)[nH]c2c1 [Example 28, 2-(5′-(5″-(Dimethylamino)benzimidazol-2″-yl)benzimidazol-2′-yl)pyridine]
- IC50 [1]: 60.8 µM
- DMF10 (dose modification factor at a concentration of 10 microM of radioprotector) [2]: 1.30
- DMFm (dose modification factor at maximum protection) [2]: 1.57
- PF (protection factor = Sm/So) [2]: 13.5

- melting point: 198 to 205 °C
Compound: CN(C)C1CCN(c2ccc3nc(-c4ccc5nc(-c6ccccn6)[nH]c5c4)[nH]c3c2)CC1 [Example 29, 2-(5′-(5″-(4′″-(Dimethylamino)piperidin-1′″-yl)benzimidazol-2″-yl)benzimidazol-2′-yl)pyridine]
- IC50 [1]: 46.9 µM
- DMF10 (dose modification factor at a concentration of 10 microM of radioprotector) [2]: 1.54
- DMFm (dose modification factor at maximum protection) [2]: 1.76
- PF (protection factor = Sm/So) [2]: 18.2

- melting point: 200 °C (dec.)
Compound: COc1cc(-c2nc3cc(N4CCN(C)CC4)ccc3[nH]2)cc2nc(-c3ccccn3)[nH]c12 [Example 30, 2-(4′-Methoxy-6′-(5″-(4′″-methylpiperazin-1′″-yl)benzimidazol-2″-yl)benzimidazol-2′-yl)pyridine]
- IC50 [1]: 158 µM
- DMF10 (dose modification factor at a concentration of 10 microM of radioprotector) [2]: 1.78
- DMFm (dose modification factor at maximum protection) [2]: 1.97
- PF (protection factor = Sm/So) [2]: 13.3

- melting point: 245 to 247 °C
Compound: CN1CCN(c2ccc3nc(-c4ccc5cc(-c6ccccn6)[nH]c5c4)[nH]c3c2)CC1 [Example 31, 2-(6′-(5″-(4′″-Methylpiperazin-1′″-yl)benzimidazol-2″-yl)indol-2′-yl)pyridine]
- IC50 [1]: 19.8 µM
- DMF10 (dose modification factor at a concentration of 10 microM of radioprotector) [2]: 2.09
- DMFm (dose modification factor at maximum protection) [2]: 2.20
- PF (protection factor = Sm/So) [2]: 22.8

- melting point: 190 to 195 °C
Compound: COc1cc2nc(-c3ccccn3)[nH]c2cc1-c1nc2ccc(N3CCN(C)CC3)cc2[nH]1 [Example 32, 2-(5′-methoxy-6′-(5″-(4′″-methylpiperazin-1′″-yl)benzimidazol-2″-yl)benzimidazol-2′-yl)pyridine]
- IC50 [1]: 112 µM
- DMF10 (dose modification factor at a concentration of 10 microM of radioprotector) [2]: 1.32
- DMFm (dose modification factor at maximum protection) [2]: 1.56
- PF (protection factor = Sm/So) [2]: 23.6

Compound: COCCN(C)c1ccc2[nH]c(-c3ccc4[nH]c(-c5ccccn5)nc4c3)nc2c1 [Example 38, 2-(5′-(5″-((2′″-Methoxyethyl)(methyl)amino)benzimidazol-2″-yl)benzimidazol-2′-yl)pyridine]
- IC50 [1]: 41.2 µM
- DMF10 (dose modification factor at a concentration of 10 microM of radioprotector) [2]: 1.32
- DMFm (dose modification factor at maximum protection) [2]: 1.55
- PF (protection factor = Sm/So) [2]: 8.8
- melting point: 150 to 155 °C

Compound: COCCOCCNc1ccc2nc(-c3ccc4nc(-c5ccccn5)[nH]c4c3)[nH]c2c1 [Example 39, 2-(5′-(5″-(2′″-(2″″-methoxyethoxy)ethylamino)benzimidazol-2″-yl)benzimidazol-2′-yl)pyridine]
- IC50 [1]: 173 µM
- DMF10 (dose modification factor at a concentration of 10 microM of radioprotector) [2]: 1.50
- DMFm (dose modification factor at maximum protection) [2]: 2.70
- PF (protection factor = Sm/So) [2]: 171.5
- melting point: 183 to 186 °C

Compound: OCCN1CCN(c2ccc3nc(-c4ccc5nc(-c6ccccn6)[nH]c5c4)[nH]c3c2)CC1 [Example 41, 2-(5′-(5″-(4′″-(2″″-hydroxyethyl)piperazin-1′″-yl)benzimidazol-2″-yl)benzimidazol-2′-yl)pyridine]
- IC50 [1]: 90.6 µM
- DMF10 (dose modification factor at a concentration of 10 microM of radioprotector) [2]: 1.44
- DMFm (dose modification factor at maximum protection) [2]: 1.95
- PF (protection factor = Sm/So) [2]: 19.6
- melting point: 218 to 221 °C

Compound: c1ccc(-c2nc3ccc(-c4nc5ccc(NN6CCOCC6)cc5[nH]4)cc3[nH]2)nc1 [Example 42, 2-(5′-(5″-(morpholinoamino)benzimidazol-2″-yl)benzimidazol-2′-yl)pyridine]
- IC50 [1]: 206 µM
- DMF10 (dose modification factor at a concentration of 10 microM of radioprotector) [2]: 1.38
- DMFm (dose modification factor at maximum protection) [2]: 1.86
- PF (protection factor = Sm/So) [2]: 17.8
- melting point: 198 to 205 °C

- melting point: 203 to 208 °C
Compound: CN1CCN(c2ccc3nc(-c4ccc5nc(-c6cc(C(F)(F)F)ccn6)[nH]c5c4)[nH]c3c2)CC1 [Example 48, 2-(5′-(5″-(4′″-methylpiperazin-1′″-yl)benzimidazol-2″-yl)benzimidazol-2′-yl)-4-(trifluoromethyl)pyridine]
- IC50 [1]: 23.3 µM
- DMF10 (dose modification factor at a concentration of 10 microM of radioprotector) [2]: 2.58
- DMFm (dose modification factor at maximum protection) [2]: 2.75
- PF (protection factor = Sm/So) [2]: 63.8

- melting point: 320 °C (dec.)
Compound: CN1CCN(c2ccc3nc(-c4ccc5nc(-c6ccc(C(F)(F)F)cn6)[nH]c5c4)[nH]c3c2)CC1 [Example 49, 2-(5′-(5″-(4′″-methylpiperazin-1′″-yl)benzimidazol-2″-yl)benzimidazol-2′-yl)-5-(trifluoromethyl)pyridine]
- IC50 [1]: 12.2 µM
- DMF10 (dose modification factor at a concentration of 10 microM of radioprotector) [2]: 2.21
- DMFm (dose modification factor at maximum protection) [2]: 2.38
- PF (protection factor = Sm/So) [2]: 33.1

- melting point: 204 to 209 °C
Compound: Cc1ccnc(-c2nc3ccc(-c4nc5ccc(N6CCC(O)CC6)cc5[nH]4)cc3[nH]2)c1 [Example 50, 2-(5′-(5″-(4′″-hydroxypiperidin-1′″-yl)benzimidazol-2″-yl)benzimidazol-2′-yl)-4-methylpyridine]
- IC50 [1]: 134 µM
- DMF10 (dose modification factor at a concentration of 10 microM of radioprotector) [2]: 1.33
- DMFm (dose modification factor at maximum protection) [2]: 1.79
- PF (protection factor = Sm/So) [2]: 23.5

- melting point: 208 to 213 °C
Compound: Cc1ccc(-c2nc3ccc(-c4nc5ccc(N6CCC(O)CC6)cc5[nH]4)cc3[nH]2)nc1 [Example 51, 2-(5′-(5″-(4′″-hydroxypiperidin-1′″-yl)benzimidazol-2″-yl)benzimidazol-2′-yl)-5-methylpyridine]
- IC50 [1]: 124 µM
- DMF10 (dose modification factor at a concentration of 10 microM of radioprotector) [2]: 1.90
- DMFm (dose modification factor at maximum protection) [2]: 2.07
- PF (protection factor = Sm/So) [2]: 58.7

Compound: Cc1cc(N(C)C)ccc1-c1nc2ccc(-c3nc4ccc(N5CCN(C)CC5)cc4[nH]3)cc2[nH]1 [methylproamine, reference compound]
- local reaction or toxicity at the site of subcutaneous injection (mice): had been observed
